From patent US11786517B2, “Methods of treatment using a JAK inhibitor compound” (THERAVANCE BIOPHARMA R&D IP, LLC, priority 2017, dated 2023)

Columns and labels:
[1] = Ocular pharmacokinetics in rabbit eyes; type: in vivo, New Zealand white rabbits
Protocol: The objective of this assay was to determine the pharmacokinetics of the test compound in rabbit ocular tissues.
The compound of the invention, 5-ethyl-2-fluoro-4-(3-(5-(1-methylpiperidin-4-yl)-4,5,6,7-tetrahydro-1H-imidazo[4,5-c]pyridin-2-yl)-1H-indazol-6-yl)phenol (1) was dissolved in either 10% 2-hydroxypropyl-β-cyclodextrin to attain a target concentration of 4 mg/mL or in purified water to attain a target concentration of 1 mg/mL. Bilateral intravitreal injection (50 μL/eye) of the solution of test compound was administered to New Zealand white rabbits in two dose groups, 200 μg/eye and 50 μg/eye, respectively, for the cyclodextrin and water vehicle formulations, respectively. The test compound concentration was measured in ocular tissues: vitreous, aqueous, retina/choroid and iris-ciliary body at pre-determined time points post injection (30 min, 4 h, 1 d, 3 d, 7 d, 14 d). Two rabbits (four eyes) were dosed for each time point.
A suspension formulation was prepared by combining crystalline compound 1 of Example 1 with 0.5% hydroxypropyl methylcellulose (HPMC E5)+0.02% Tween 80 to attain a target concentration of 10 mg/mL. Bilateral intravitreal injection (50 μL/eye) of the suspension of test compound was administered to New Zealand white rabbits (500 μg/eye). The test compound concentration was measured in ocular tissues as in the […] at 30 min, 2 wks, 4 wks, 6 wks, and 8 wks post injection. […] The behavior is consistent with the solubility of compound 1 in the vehicle and the ocular pharmacokinetic behavior in the solution formulation. The drug concentration in plasma was measured and found to be at least 3 orders of magnitude lower than the concentration in vitreous tissue.

[2] = system: IFNγ induced pSTAT1 in rabbit retina/choroid tissue; test: Pharmacodynamic assay: inhibition of IFNγ-induced pSTAT1 in rabbit eyes; type: in vivo, New Zealand White rabbits; conditions: 0.9 mg intravitreal suspension, 1 week pre-treatment
Protocol: The ability of a single intravitreal administration of test compound to inhibit interferon-gamma (IFNγ) induced phosphorylation of STAT1 protein (pSTAT1) was measured in rabbit retina/choroid tissue.
A suspension formulation was prepared by combining compound 1 of Example 1, with 0.5% hydroxypropyl methylcellulose (HPMC E5), 0.02% Tween 80, and 9 mg/mL sodium chloride in purified water to attain a target concentration of 20 mg/mL.
Male, New Zealand White rabbits (Liveon Biolabs, India) were used for the studies. Animals were acclimated after arrival at the research facilities (Jubilant Biosys Ltd., India). Each rabbit was given a total of two intravitreal (IVT) injections with a total dose volume of 50 μL per eye. The first IVT injection (45 μL per eye) delivered 0.9 mg of test compound or vehicle. One week later, a second IVT injection (5 μL per eye) delivered IFNγ (1 μg/eye; stock solution 1 mg/mL; Kingfisher Biotech) or vehicle for the induction of IP-10. […]
Tissues were collected 2 hours after the second IVT injection with IFNγ. Retina/choroid tissues (R/C) were collected and homogenized, and pSTAT1 levels were measured by quantitative Western Blot on the ProteinSimple WES instrument. The percent inhibition of IFNγ-induced pSTAT1 was calculated in comparison to the vehicle/vehicle and vehicle/IFNγ groups.

drug concentration in plasma lower than concentration in vitreous tissue ([1]; intravitreal injection, listed as compound 1 of Example 1): at least 3 orders of magnitude
clearance rate, linear decrease in drug concentration in the vitreous ([1]; intravitreal suspension 500 μg/eye, 30 min to 6 weeks): approximately 3 μg/mL/day
Compound: CCc1cc(O)c(F)cc1-c1ccc2c(-c3nc4c([nH]3)CCN(C3CCN(C)CC3)C4)n[nH]c2c1 [Example 1, Crystalline hydrate of 5-ethyl-2-fluoro-4-(3-(5-(1-methylpiperidin-4-yl)-4,5,6,7-tetrahydro-1H-imidazo[4,5-c]pyridin-2-yl)-1H-indazol-6-yl)phenol]
inhibition of IFNγ-induced pSTAT1 [2]: 85%
